Reference: patent publication US8629251B2, “Specific detection and quantification of phosphatidic acid using an Arabidopsis trigalactosyldiacylglycerol-4 (TGD4) protein” (Board of Trustees of Michigan State University, priority 2008, dated 2014)

Key:
[1] = molecular target: T1, Arabidopsis TGD2, DsRed-TGD2C WT fusion protein, residues 119-381, SEQ ID NO:107 (Arabidopsis thaliana, UniProt Q9LTR2); experiment: Protein-lipid overlay assay, DsRed-TGD2C WT; assay type: binding; settings: commercial phospholipid membrane strip
T1 sequence (Q9LTR2 121-381): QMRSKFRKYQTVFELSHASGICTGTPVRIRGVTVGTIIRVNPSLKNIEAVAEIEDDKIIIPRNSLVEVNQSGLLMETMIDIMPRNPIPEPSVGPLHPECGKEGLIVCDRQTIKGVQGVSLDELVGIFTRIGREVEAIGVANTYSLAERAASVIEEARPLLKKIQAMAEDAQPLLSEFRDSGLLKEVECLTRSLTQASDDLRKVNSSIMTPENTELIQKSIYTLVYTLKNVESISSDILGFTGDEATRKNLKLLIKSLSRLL
Description: Membrane lipid strips were purchased from Echelon Biosciences (Salt Lake City, Utah). The strips were first blocked with 3% bovine serum albumin in TBST (10 mM Tris-HCl, pH 8.0, 150 mM NaCl, and 0.25% Tween-20) for two hours and incubated in 0.5 μg/mL DsRed-TGD2 fusion protein solution in the blocking buffer at 4° C. overnight. The strips were washed 10 min for 3 times with TBST the next day and soaked in 3% bovine serum albumin in TBST with a Penta-His mouse monoclonal antibody (Sigma-Aldrich, St. Louis, Mo.) at 1:2,000 dilution at 4° C. overnight. The strips were washed twice with TBST and soaked in 3% bovine serum albumin in TBST with horseradish peroxidase-conjugated anti mouse antibody (Bio-Rad, Hercules, Calif.) at 1:20,000 dilution for an hour at room temperature. Following washing with TBST for 1 hour, the protein was detected by using the chemiluminescent detection system (Sigma-Aldrich).

[2] = molecular target: T2, Arabidopsis TGD2, N-terminally truncated TGD2-dTMD-His (from Gly-119) (Arabidopsis thaliana, UniProt Q9LTR2); experiment: Membrane lipid binding assay, TGD2-dTMD-His; settings: lipid membranes, FIG. 8A
T2 sequence (Q9LTR2 119-381): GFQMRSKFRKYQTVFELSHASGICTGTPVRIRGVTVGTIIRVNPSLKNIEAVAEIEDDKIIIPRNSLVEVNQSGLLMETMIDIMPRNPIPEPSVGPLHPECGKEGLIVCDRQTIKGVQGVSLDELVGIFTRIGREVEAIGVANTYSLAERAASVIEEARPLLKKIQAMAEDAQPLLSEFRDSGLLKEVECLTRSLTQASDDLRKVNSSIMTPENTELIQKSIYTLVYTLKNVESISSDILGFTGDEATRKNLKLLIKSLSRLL
Description: Commercially available membrane strips prespotted with lipids were purchased. (Echelon Biosciences, Salt Lake City, Utah). Prokaryotic phosphatidylcholine and PA were also purchased (Avanti Polar Lipids). Prokaryotic monogalactolipid, digalactolipid, sulfolipid, and phosphatidylglycerol were purified from Synechocystis PCC6803 by TLC of lipid extracts. Eukaryotic monogalactolipid and digalactolipid was isolated from pea leaves.
Approximately 5 μg of lipids were spotted onto a Hybond-C membrane (Amersham Pharmacia Biosciences). The membranes were first blocked with 3% BSA in TBST (10 mM Tris-HCl, pH 8.0/150 mM NaCl/0.1% Tween 20) for 1 h and incubated in 0.5 μg/ml TGD2 protein solution in the blocking buffer at 4° C. overnight. The blots were washed five times with TBST and soaked in 3% BSA in TBST with a Penta-His mouse monoclonal antibody (Qiagen) at a 1:1,000 dilution at room temperature overnight. The membranes were washed twice with TBST and soaked in 3% BSA in TBST with alkaline phosphatase-conjugated anti-mouse antibody (Jackson ImmunoResearch) at a 1:5,000 dilution for 1 hour at room temperature. After washing with TBST twice, the protein was detected by using the Immun-Star AP detection system (Bio-Rad).

[3] = molecular target: Arabidopsis TGD2, DsRed-TGD2C D2 (Δ221-225, SEQ ID NO:46) (Arabidopsis thaliana, UniProt Q9LTR2, DEL221-225); experiment: Liposome-association assay, TGD2C D2 (Δ221-225); assay type: binding; settings: FIG. 3C
Description: The liposome association assay was performed as previously reported. (31). Briefly, lipids (dioleoyl-phosphatidylcholine, DOPC or dioleoyl-PA, DOPA) were incubated in TBS (50 mM Tris-HCl, pH 7; 0.1 M NaCl) at 37° C. for an hour followed by vigorous vortexing for 5 min. The liposomes were precipitated at 20,000 g and washed twice with ice-cold TBS.
Liposomes (200 μg) were mixed with purified DsRed-TGD2 fusion protein and TBS to make a final 100 μL solution. The mixture was incubated at 30° C. for 30 min and washed twice with ice-cold TBS by centrifugation at 20,000 g at 4° C. The liposome pellet mixed with sample buffer was analyzed by SDS-PAGE (28). Immuno-detection of the His-tagged protein was accomplished using the above mentioned Penta-His antibody at 1:15,000 and the anti mouse antibody at 1:75,000 dilution.
The protein band was visualized by chemiluminescent detection kit from Sigma. The autoradiography film was scanned, distinct protein bands were quantified using computer software Multi Gauge V3.0 (Fujifilm USA, Valhalla, N.Y.) and resulted data were plotted and analyzed by OriginPro8 (Origin lab corporation, Northampton, Mass.).

Sequence of Arabidopsis TGD2, DsRed-TGD2C D2 (Δ221-225, SEQ ID NO:46) (Q9LTR2 other isoform, or with tags, fused parts or gaps DEL221-225): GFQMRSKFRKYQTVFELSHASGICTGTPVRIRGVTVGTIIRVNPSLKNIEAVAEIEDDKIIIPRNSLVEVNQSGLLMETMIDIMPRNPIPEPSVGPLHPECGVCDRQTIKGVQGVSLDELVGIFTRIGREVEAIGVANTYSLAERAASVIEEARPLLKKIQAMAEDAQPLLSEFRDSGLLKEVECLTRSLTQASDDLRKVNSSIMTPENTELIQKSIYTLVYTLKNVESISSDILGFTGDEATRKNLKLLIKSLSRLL

CCCCCCCC/C=C\CCCCCCCC(=O)OC[C@H](COP(=O)(O)O)OC(=O)CCCCCCC/C=C\CCCCCCCC [PA, phosphatidic acid]
binding to lipids on membrane strip [1]: shows specificity for PA over other lipids
binding of lipids [2]: bound
PA binding [3]: decreased binding activity dramatically
